Columns and labels:
MMP-12 = MMP-12 (Homo sapiens, UniProt P39900); assay: In vitro inhibition of proteolysis of fluorogenic peptide substrate FP-1 by MMP-12; type: biochemical; details: substrate FP-1 10 μM, 20 minutes at ambient temperature, compounds tested 0.3 to 30 μM
Protocol: (§1) The inhibitory activity of the compounds of formula (I) with regard to metalloproteinase-12 is evaluated by testing the ability of the compounds of the invention to inhibit the proteolysis of a peptide substrate by MMP-12.
(§2) The inhibitory activity of a compound of formula (I) is expressed as IC50 value, which represents the concentration of inhibitor at which a degree of inhibition of the metalloproteinase of 50% is observed.
(§3) The reaction begins with the sequential addition of 41 μl of substrate FP-1 (final concentration of 10 μM) to a buffer solution of 50 mM of Tris-HCl and 10 mM of CaCl2, which comprises 5 mM of hydroxamic acid and 5 μl of the enzyme diluted in a 0.005% Brij-35 buffer solution. The microplates are incubated for 20 minutes at ambient temperature. The compounds of the invention are tested at concentrations varying from 0.3 to 30 μM.
(§4) The measurement of the amount of proteolysis of the peptide substrate is monitored by a measurement of absorbance at 405 nm using a microplate spectrophotometer, at ambient temperature. The IC50 values are calculated from curves in which the percentage of the catalytic activity relative to the control is represented on the […] and the concentration of inhibitor is represented on the Y axis.

MMP-13 = MMP-13 (Homo sapiens, UniProt P45452); assay: MMP-12 test adapted to MMP-13; type: biochemical
Protocol: as §1, §2, §3, §4
The test described above for the inhibition of MMP-12 is adapted and used to determine the ability of the compounds of formula (I) to inhibit the metalloproteinases MMP-1, MMP-2, MMP-3, MMP-7, MMP-9, MMP-13 and MMP-14. […] More specifically, the compounds of the present invention generally show a selectivity with a factor of greater than 50 with respect to the metalloproteinases mentioned above, except towards MMP-13. Thus, the compounds of the present invention also show an inhibitory activity with regard to MMP-13, making it possible to also use the pharmaceutical compositions comprising one or more compounds of the invention in the treatment of pathologies related to activity of MMP-13. Mention may be made, among these pathologies, by way of indication and without implied limitation, of cancer, osetoporosis, osteoarthritis, arthritis, rheumatoid arthritis, atherosclerosis, multiple sclerosis, cardiac insufficiency, asthma and chronic obstructive pulmonary disease.

Sequence of MMP-12 (P39900 106-470): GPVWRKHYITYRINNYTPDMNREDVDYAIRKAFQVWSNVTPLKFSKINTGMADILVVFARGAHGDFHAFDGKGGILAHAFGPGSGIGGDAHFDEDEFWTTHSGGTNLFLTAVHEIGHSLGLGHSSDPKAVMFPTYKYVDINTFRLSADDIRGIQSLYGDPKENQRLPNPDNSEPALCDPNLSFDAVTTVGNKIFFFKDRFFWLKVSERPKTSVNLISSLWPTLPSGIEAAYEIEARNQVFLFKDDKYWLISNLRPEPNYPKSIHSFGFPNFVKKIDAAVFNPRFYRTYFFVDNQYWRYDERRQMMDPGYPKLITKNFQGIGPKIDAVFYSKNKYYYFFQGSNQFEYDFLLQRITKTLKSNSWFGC

Row | IC50 (MMP-12) [µM] | IC50 (MMP-13) [µM] | Compound
1 | 0.32 | 3.95 | O=C(O)CC[C@@H]1CCC[C@@H](NC(=O)c2cc(-c3ccc(OC(F)(F)F)cc3)cs2)C1 (relative stereo) [Example 125, trans-3-(3-{[4-(4-Trifluoromethoxyphenyl)thien-2-yl]-carboxamido}cyclohexyl)propanoic acid]
2 | 0.915 | 11.6 | Cn1ccc(-c2ccc(-c3csc(C(=O)NCCN4CCOCC4)c3)cc2)n1 [Example 22, 4-[4-(1-Methyl-1H-pyrazol-3-yl)phenyl]-N-(2-morpholin-4-ylethyl)thiophene-2-carboxamide]
3 | 0.845 | 6.1 | O=C(O)CCc1ccc(NC(=O)c2cc(-c3ccc(OC(F)(F)F)cc3)cs2)nc1 [Example 27]
4 | 0.405 | 3.45 | O=C(NC[C@H]1CC[C@H](C(=O)O)CC1)c1cc(-c2ccc(OC(F)(F)F)cc2)cs1 [Example 35, trans-4-({[4-(4-Trifluoromethoxyphenyl)thien-2-yl]-carboxamido}methyl)cyclohexanecarboxylic acid]
5 | 0.427 | 4.53 | O=C(O)Cc1ccc(CNC(=O)c2cc(-c3ccc(OC(F)(F)F)cc3)cs2)cc1 [Example 37, 2-[4-({[4-(4-Trifluoromethoxyphenyl)thien-2-yl]carboxamido}-methyl)phenyl]acetic acid]
6 | 0.05 | – | CCC(=O)c1ccc(-c2ccc(-c3csc(C(=O)NCc4ccc(CC(=O)O)cc4)c3)cc2)cc1 [Example 103, 2-[4-({[4-(4′-Propionyl-4-biphenyl)thien-2-yl]carboxamido}-methyl)phenyl]acetic acid]
7 | 0.05 | – | O=C(O)Cc1ccc(CNC(=O)c2cc(-c3ccc(-c4ccc(C(=O)C5CC5)cc4)cc3)cs2)cc1 [Example 105, 2-[4-({[4-(4′-Cyclopropylcarbonyl-4-biphenyl)thien-2-yl]-carboxamido}methyl)phenyl]acetic acid]
8 | 0.14 | – | CC(=O)c1ccc(-c2ccc(-c3csc(C(=O)NCc4ccc(CC(=O)O)cc4)c3)cc2)cc1O [Example 113]
9 | 0.72 | – | O=C(NC1CCCCC1CO)c1cc(-c2ccc(OC(F)(F)F)cc2)cs1 (centres unmarked) [Example 121, N-[2-(Hydroxymethyl)cyclohexyl]-4-(4-trifluoromethoxyphenyl)-thiophene-2-carboxamide]

Continued, compound first:

Row | Compound | IC50 (MMP-12) [µM] | IC50 (MMP-13) [µM]
10 | 2-(4-{[(4-{4-[4-(2-Oxopropyl)-3-hydroxyphenyl]phenyl}thien-2-yl)carboxamido]methyl}phenyl)acetic acid [Example 119] | 0.13 | 0.78
11 | 2-[4-({[4-(4′-Benzoyl-4-biphenyl)thien-2-yl]carboxamido}-methyl)phenyl]acetic acid [Example 107] | 0.05 | –
12 | 3-[4-({[4-(4-Trifluoromethoxyphenyl)thien-2-yl]carboxamido}-methyl)phenyl]propanoic acid [Example 63] | 0.49 | 3.8
13 | O=C(NCCN1CCOCC1)c1cc(-c2ccc(-c3ccccc3)cc2)cs1 [Example 2, 4-(4-Biphenyl)-N-(2-morpholin-4-ylethyl)thiophene-2carboxamide] | 0.35 | 30
14 | O=C(NCCN1CCOCC1)c1cc(-c2ccc(-c3ccncc3)cc2)cs1 [Example 9, 4-[4-(Pyridin-4-yl)phenyl]-N-(2-morpholin-4-ylethyl)thiophene-2-carboxamide] | 0.105 | 1.5
15 | O=C(NCCN1CCOCC1)c1cc(-c2ccc(-c3cccnc3)cc2)cs1 [Example 11, 4-[4-(Pyridin-3yl)phenyl]-N-(2-morpholin-4-ylethyl)thiophene-2-carboxamide] | 0.91 | 4.8
16 | O=C(NCCN1CCOCC1)c1cc(-c2ccc(N3CCCC3)cc2)cs1 [Example 14, 4-[4-(Pyrrolidin-1-yl)phenyl]-N-(2-morpholin-4-ylethyl)thiophene-2-carboxamide] | 0.86 | 2.08
17 | O=C(NCCN1CCOCC1)c1cc(-c2ccc(C3CCCCC3)cc2)cs1 [Example 21, 4-[4-(Cyclohexyl)phenyl]-N-(2-morpholin-4-ylethyl)thiophene-2-carboxamide] | 0.46 | 11
